Experimental data reported in US20260216143A1, “PHARMACEUTICAL COMPOSITION FOR TREATING CHRONIC KIDNEY DISEASE” (priority 2020, published 2026).

How the values were obtained:
Col4a3−/− mice = settings: cited from earlier work
[1] = tested on: Alport syndrome model (129-Col4a3tm1Dec/J) mice; test: Body weight of Alport syndrome model mice (Example 1); assay type: in vivo, mouse; settings: FIG. 2; body weight immediately before death used for dead mice; candesartan 10 mg/kg, Lotriga 1500 mg/kg
Procedure: Body weight was measured using a scale for animals twice weekly from the grouping day and on the sampling day of each group.
Animals were restrained, and a test substance was orally administered using a 1-mL syringe and a sonde. Administration was performed in accordance with the conditions described in Section 5.1., so that a volume of approximately 0.1 mL should be administered to each animal. The volume administered was calculated on the basis of the most recent body weight. […] The administration interval was 6 hours or longer.
Of note, when the mean body weight was calculated, the body weight of a dead mouse was not assumed as zero, and the body weight measured immediately before death was used for calculation.

[2] = tested on: Alport syndrome model (129-Col4a3tm1Dec/J) mice; test: Survival of Alport syndrome model mice, oral repeated administration (Example 1); assay type: in vivo, mouse; settings: Pirespa 100 mg/kg/day, FIG. 1
Procedure: Each test substance is orally and repeatedly administered to Alport syndrome model (129-Col4a3tm1Dec/J) mice for 10 weeks, and then a serum biochemistry test is performed. The kidneys are further observed histopathologically to examine the effect of administration of each test substance on the kidneys.
Test substances were prepared for each use before use on the experiment day. Candesartan was dissolved at a dose of 4 mg/mL in phosphate-buffered saline (hereinafter referred to as PBS) to prepare a dosing solution (10 mg/2.5 mL/kg) for Group Numbers 6 and 7. A solution was prepared by diluting this dosing solution with an equal amount of PBS as a dosing solution (10 mg/5 ml/kg) for Group Number 3. Pirespa was dissolved at a dose of 40 mg/mL in PBS and dissolved in PBS which was to be a dosing solution (50 mg/1.25 mL/kg) for Group Number 6. A solution was prepared by diluting this dosing solution with an equal amount of PBS as a dosing solution (50 mg/2.5 mL/kg) for Group Number 4. Lotriga was suspended at a dose of […] in a 0.5% methylcellulose solution (hereinafter referred to as MC) to prepare a dosing solution (1500 mg/2.5 mL/kg) for Group Number 7. […]
Animals were restrained, and a test substance was orally administered using a 1-mL syringe and a sonde. […] The volume administered was calculated on the basis of the most recent body weight. […]

[3] = tested on: Alport syndrome model (129-Col4a3tm1Dec/J) mice; test: Histopathological test of the kidneys: HE, PAS, MT, PAM staining and damage scoring (Example 1); assay type: in vivo, mouse
Procedure: (§1) The body weights of animals were measured at Day 45, blood was drawn from the caudal vena cava under anesthesia with isoflurane, and animals were euthanized by exsanguination. Death was confirmed by visually observing cardiopulmonary arrest (euthanasia). Then, the left and right kidneys, the left and right femurs, the left and right eyeballs, the cochlea, the heart, and the pancreas were collected and trimmed, and the wet weights of the left and right kidneys, the left and right femurs, and the heart were measured. Among the collected biotissues, the left and right femurs were immersed in a 70% ethanol solution. Other tissues were immersed in a 10% neutral buffered formalin solution. Of note, the right kidney was divided into two at the renal pelvis and immersed after to obtain kidney specimens.
The kidneys immersed in a 10% neutral buffered formalin solution were sent to the external facility, and Hematoxylin-Eosin (HE) staining, Periodic Acid-Schiff (PAS) staining, Masson's Trichrome (MT) staining, and Periodic Acid Methenamine silver (PAM) staining were performed for pathological assessment.
The severity of glomerular damage was assessed in each group of Alport syndrome model mice. Specifically, the severity was quantified for glomerulosclerosis, crescent formation, and basement membrane with a double contour with five levels (0, no change; 1, slight; 2, mild; 3, moderate; 4, severe. Refer to “Guidance on pathological diagnosis of diabetic nephropathy and hypertensive nephrosclerosis,” Tokyo Igakusha).
The severity of renal tubular damage was assessed in each group of Alport syndrome model mice. Specifically, the severity was quantified for renal tubular expansion accompanied by hyaline casts, interstitial fibrosis, inflammatory cell infiltration into the interstitium, and renal tubular expansion accompanied by cellular casts with five levels (0, no change; 1, slight; 2, mild; 3, moderate; 4, severe. Refer to “Guidance on pathological diagnosis of diabetic nephropathy and hypertensive nephrosclerosis,” Tokyo Igakusha).

[4] = tested on: Alport syndrome model (129-Col4a3tm1Dec/J) mice; assay type: in vivo; settings: FIG. 4
Procedure: as §1
The obtained blood was allowed to stand at room temperature for at least four hours and centrifuged under conditions of 4° C., 12000 rpm, and 3 min to obtain serum. Serum was divided into two tubes and frozen.
Blood biochemistry test items were measured using the frozen serum delegated to the external facility. The measurement items were total protein, albumin, blood urea nitrogen (BUN), creatinine (CRE), uric acid, sodium (Na), potassium (K), chloride (CI), calcium, phosphorus, amylase, lipase, AST (GOT), ALT (GPT), Y-GTP, LDH, triglyceride, total cholesterol, HDL cholesterol, total bilirubin, and glucose. Pooled specimens of each group were used for measurement.

[5] = tested on: Alport syndrome model (129-Col4a3tm 1Dec/J) mice; test: Body weight of Alport syndrome (AS) mice (Example 2); assay type: in vivo, mouse; settings: FIG. 16; groups receiving a DHA ethyl ester; p<0.01, t test
Procedure: Body weight was measured using a scale for animals twice weekly from the grouping day and daily from the day of the first animal death until the sampling day of each group.
Animals were restrained, and a test substance was administered directly into the stomach using a 1-mL syringe and a sonde (Fuchigami Kikai, CAT No. 5200). Administration was performed in accordance with the conditions described in Section 5.1., so that a volume of 5 mL/kg should be administered to each animal. The volume administered was calculated on the basis of the most recent (before the administration day) body weight.
The mean and standard error of the body weight and the wet weight of each organ were calculated for each study group. Further, each of the measured values was compared between the Group Number (2) and each of other groups. A statistical analysis add-in software “Excel Statistics 2015” (Social Survey Research Information Co., Ltd.) was used for statistical processing, and a significant difference was determined with a […] (p value)<0.05.

[6] = serum, pooled specimens per group, Day 45

For `CCOC(=O)[C@H](CCc1ccccc1)N[C@@H](C)C(=O)N1[C@H](C(=O)O)C[C@@H]2CCC[C@@H]21` [ramipril], the serum urea concentration (Col4a3−/− mice) is listed as “markedly decreased”, the survival time (Col4a3−/− mice) is listed as “significantly prolonged” and the urine protein level (Col4a3−/− mice) is listed as “markedly decreased”.
For `CCOc1nc2cccc(C(=O)OC(C)OC(=O)OC3CCCCC3)c2n1Cc1ccc(-c2ccccc2-c2nn[nH]n2)cc1` (stereo not drawn) [candesartan, Candesartan cilexetil], the “changes with time in the mean body weight” value [1] is given as “body weight loss began from 25 days after administration, and marked body weight loss was also observed in surviving mice”, the serum urea concentration (Col4a3−/− mice) is given as “markedly decreased” and the survival time (Col4a3−/− mice) is given as “significantly prolonged”. The urine protein level (Col4a3−/− mice) was “markedly decreased”, the survival rate ([2]; Day 45 (end of study), candesartan 10 mg/kg once daily, Lotriga 1500 mg/kg once daily) was 40% and the “kidney histopathology, HE staining findings” value ([3]; FIG. 7) was “adhesion to the glomerulus due to glomerulosclerosis and crescent formation, renal tubular expansion, and lymphocyte infiltration into the interstitium were observed at various sites”. The “kidney histopathology, PAS staining findings” value ([3]; FIG. 8) was “glomerulosclerosis, in which PAS-positive substances were deposited on the mesangial substrate, and growth of crescent cells were observed”, the “kidney histopathology, MT staining (fibrosis)” value ([3]; FIG. 9) was “Fibrosis was observed in an area of crescent hyperplasia and in the renal tubular interstitium” and the “kidney histopathology, PAM staining (double contour of the loop wall)” value ([3]; FIG. 10) was “A double contour of the loop wall was observed”. For the same molecule, the “progression of renal failure” value ([4]; judged from blood biochemistry) was “at a level comparable to that in the untreated group”, the BUN level [4, 6] was “very high and as high as in the untreated group” and the K level [4, 6] was “development of hyperkalemia”. The creatinine level [4, 6] was “very high and as high as in the untreated group”.
With `CC/C=C\C/C=C\C/C=C\C/C=C\C/C=C\C/C=C\CCC(=O)OCC` [DHA ethyl ester, docosahexaenoic acid ethyl ester] the “mean body weight vs untreated group” value [5] was “significantly increased as compared with the untreated group”.
In the case of `Cc1ccc(=O)n(-c2ccccc2)c1` [Pirespa], the “survival (in words)” value ([2]; up to Day 45, candesartan 10 mg/kg, Lotriga 1500 mg/kg) is reported as “all mice died early”.
